Experimental data as given in patent US9944666B2, “Compounds that are S1P modulating agents and/or ATX modulating agents” (BIOGEN MA INC., priority 2012, dated 2018).

Molecular target: T1, Human ATX protein (Homo sapiens, UniProt Q13822)
T1 construct: made in house
Test: ATX biochemical FRET assay with FS-3 substrate
Details: FS-3 2 μM, ATX 1.0 μg/mL, room temperature 2 hours, fluorescence 485/538 nm
From the text: ATX (Autotaxin) is a 125 KDa glycoprotein with lysophospholipase D (LPLD) activity that generates the bioactive lipid lysophosphatidic acid (LPA) from lysophosphatidylcholine (LPC). The ATX biochemical assay utilizes a FRET (fluorescence resonance energy transfer) technology platform. The fluorescence signal of FRET substrate FS-3 is quenched due to intra-molecular FRET of a fluorophore to a non-fluorescing quencher (Ferguson, C. G., et al., Org Lett. 2006 May 11; 8(10): 2023-2026, which is incorporated by reference in its entirety). ATX catalyzes the hydrolysis of the substrate which separates the dabsyl quencher from the fluorescein reporter, which becomes fluorescent. The reaction is monitored by a SpectraMax M5 (Molecular Devices, Sunnyvale, Calif.) with at excitation wavelength 485 nm and emission wavelength […].
Fatty acid free-BSA (Sigma A8806): 10 mg/ml, in H2O, stored at 4° C.
2×ATX assay buffer: 100 mM Tris, 280 mM NaCl, 10 mM KCl, 2 mM CaCl2, 2 mM MgCl2, pH 7.4.
Human ATX protein: expressed and purified in house. Stored at −80° C.
Substrate FS-3 (Echelon, L-2000): 100 μg in 77.74 μL H2O (1 mM stock), stored at −20° C.
384-well flat bottom plates—Corning #3575.
Compound dilution—All compounds were provided at 10 mM in 100% DMSO. In the first well, 2 μL of 10 mM compound was added to 78 μL of DMSO (1:40 dilution). In subsequent wells 3-fold dilution (total 10 dilutions) were performed.
1×ATX assay buffer was made up with a final concentration of 1 mg/mL fatty acid free-BSA using 2×ATX assay buffer, 10 mg/ml fatty acid free-BSA and ddH2O.
ATX protein was diluted with 1×ATX assay buffer to a concentration of 1.32 μg/mL (1.32×). 38 μL was added per well to the assay plate. The final concentration of ATX in the reaction as 1.0 μg/mL.
2 μL per well of compounds was transferred to provide the desired concentration. The plate was centrifuged, then incubated at room temperature for 30 minutes on the shaker.
FS-3 was diluted with 1×ATX assay buffer to a concentration of FS-3 of 10 μM (5×). Then, 10 μL was added per well to the assay plate. The final concentration of FS-3 in the reaction was 2 μM. The plate was centrifuged. The plate was kept shaking at room temperature for 2 hours. Because FS-3 substrate is light sensitive, plates were kept covered and protected from light.
Fluorescence was measured using SpectraMax M5 (excitation at 485 nm/emission at 538 nm, top read).

CC[C@H]1CC[C@@H](Oc2ccc3cc(C(C)N4C5CCC4CC(C(=O)O)C5)ccc3c2C(F)(F)F)CC1 (relative stereo) [Example 176, 8-(1-(6-((cis-4-ethylcyclohexyl)oxy)-5-(trifluoromethyl)naphthalen-2-yl)ethyl)-8-azabicyclo[3.2.1]octane-3-carboxylic acid] was tested, and the IC50 was ≤ 100 nM.

In the case of CCC(c1ccc2c(C(F)(F)F)c(O[C@H]3CC[C@@H](C(F)(F)F)CC3)ccc2c1)N1C2CCCC1CC(C(=O)O)C2 (relative stereo) [Example 177, 9-(1-(6-((cis-4-trifluoromethylcyclohexyl)oxy)-5-(trifluoromethyl)naphthalen-2-yl)propyl)-9-azabicyclo[3.3.1]nonane-3-carboxylic acid], the IC50 is reported as ≤ 100 nM.

In the case of CCC(c1ccc2c(C(F)(F)F)c(O[C@H]3CC[C@@H](C(F)(F)F)CC3)ccc2c1)N1C2CCC1CC(C(=O)O)C2 (relative stereo) [Example 178, 8-(1-(6-((cis-4-trifluoromethylcyclohexyl)oxy)-5-(trifluoromethyl)naphthalen-2-yl)propyl)-8-azabicyclo[3.2.1]octane-3-carboxylic acid], the IC50 is reported as ≤ 100 nM.

In the case of CCC(c1ccc2c(C(F)(F)F)c(O[C@H]3CC[C@@H](CC)CC3)ccc2c1)N1C2CCCC1CC(C(=O)O)C2 (relative stereo) [Example 179, 9-(1-(6-((cis-4-ethylcyclohexyl)oxy)-5-(trifluoromethyl)naphthalen-2-yl)propyl)-9-azabicyclo[3.3.1]nonane-3-carboxylic acid], the IC50 is reported as ≤ 100 nM.

CCC(c1ccc2c(C(F)(F)F)c(O[C@H]3CC[C@@H](CC)CC3)ccc2c1)N1C2CCC1CC(C(=O)O)C2 (relative stereo) [Example 180, 8-(1-(6-((cis-4-ethylcyclohexyl)oxy)-5-(trifluoromethyl)naphthalen-2-yl)propyl)-8-azabicyclo[3.2.1]octane-3-carboxylic acid] was tested, and the IC50 was ≤ 100 nM.

CC[C@H]1CC[C@@H](Oc2ccc3cc(C(C)N4C5CCCC4CC(C(=O)O)C5)ccc3c2Cl)CC1 (relative stereo) [Example 182, 9-(1-(6-((cis-4-ethylcyclohexyl)oxy)-5-chloronaphthalen-2-yl)ethyl)-9-azabicyclo[3.3.1]nonane-3-carboxylic acid] was tested, and the IC50 was ≤ 100 nM.

In the case of C[C@H]1CC[C@@H](Oc2ccc3cc(CN4C5CCCC4CC(C(=O)O)C5)ccc3c2Cl)CC1 (relative stereo) [Example 183, 9-((5-Chloro-6-((cis-4-methylcyclohexyl)oxy)naphthalen-2-yl)methyl)-9-azabicyclo[3.3.1]nonane-3-carboxylic acid], the IC50 is reported as ≤ 250 nM.

CC[C@H]1CC[C@@H](Oc2ccc3cc(C(C)N4C5CCC4CC(C(=O)O)C5)ccc3c2Cl)CC1 (relative stereo) [Example 184, 8-(1-(5-Chloro-6-((cis-4-ethylcyclohexyl)oxy)naphthalen-2-yl)ethyl)-8-azabicyclo[3.2.1]octane-3-carboxylic acid] was tested, and the IC50 was ≤ 100 nM.

With CC[C@H]1CC[C@@H](Oc2ccc3cc(CN4C5CCC4CC(C(=O)O)C5)ccc3c2Cl)CC1 (relative stereo) [Example 185, 8-((5-Chloro-6-((cis-4-ethylcyclohexyl)oxy)naphthalen-2-yl)methyl)-8-azabicyclo[3.2.1]octane-3-carboxylic acid] the IC50 was ≤ 100 nM.

C[C@H](c1ccc2c(C(F)(F)F)c(O[C@H]3CC[C@@H](C(F)(F)F)CC3)ccc2c1)N1C2CCCC1CC(C(=O)O)C2 (single isomer, unassigned) [Example 89] was tested, and the IC50 was ≤ 100 nM.

With C[C@@H](c1ccc2c(C(F)(F)F)c(O[C@H]3CC[C@@H](C(F)(F)F)CC3)ccc2c1)N1C2CCCC1CC(C(=O)O)C2 (single isomer, unassigned) [Example 90] the IC50 was ≤ 100 nM.

In the case of CC[C@@H](c1ccc2c(C(F)(F)F)c(O[C@H]3CC[C@@H](C)CC3)ccc2c1)N1C2CCC1CC(C(=O)O)C2 (single isomer, unassigned) [Example 233, 8-((s)-1-(6-((cis-4-methylcyclohexyl)oxy)-5-(trifluoromethyl)naphthalen-2-yl)propyl)-8-azabicyclo[3.2.1]octane-3-carboxylic acid], the IC50 is reported as ≤ 100 nM.

With CC[C@H]1CC[C@@H](Oc2ccc3cc([C@@H](C)N4C5CCCC4CC(C(=O)O)C5)ccc3c2Cl)CC1 (single isomer, unassigned) [Example 238] the IC50 was ≤ 100 nM.

With C[C@H](c1ccc2c(Cl)c(O[C@H]3CC[C@@H](C(F)(F)F)CC3)ccc2c1)N1C2CCCC1CC(C(=O)O)C2 (single isomer, unassigned) [Example 240] the IC50 was ≤ 100 nM.

For C[C@H](c1ccc2c(Cl)c(O[C@H]3CC[C@@H](C(F)(F)F)CC3)ccc2c1)N1C2CCC1CC(C(=O)O)C2 (single isomer, unassigned) [Example 242], the IC50 was ≤ 100 nM.

With CC[C@@H](c1ccc2c(Cl)c(O[C@H]3CC[C@@H](CC)CC3)ccc2c1)N1C2CCCC1CC(C(=O)O)C2 (single isomer, unassigned) [Example 249] the IC50 was ≤ 100 nM.

With CC[C@H](c1ccc2c(C(F)(F)F)c(O[C@H]3CC[C@@H](C(F)(F)F)CC3)ccc2c1)N1C2CCC1CC(C(=O)O)C2 (single isomer, unassigned) [Example 287] the IC50 was ≤ 100 nM.

In the case of CC[C@@H](c1ccc2c(C(F)(F)F)c(O[C@H]3CC[C@@H](C(F)(F)F)CC3)ccc2c1)N1C2CCC1CC(C(=O)O)C2 (single isomer, unassigned) [Example 288], the IC50 is reported as ≤ 250 nM.

In the case of CC[C@H]1CC[C@@H](Oc2ccc3cc([C@@H](C)N4C5CCC4CC(C(=O)O)C5)ccc3c2C(F)(F)F)CC1 (single isomer, unassigned) [Example 289], the IC50 is reported as ≤ 100 nM.

For CC[C@H]1CC[C@@H](Oc2ccc3cc([C@H](C)N4C5CCC4CC(C(=O)O)C5)ccc3c2C(F)(F)F)CC1 (single isomer, unassigned) [Example 290], the IC50 was ≤ 100 nM.

For CC[C@H]1CC[C@@H](Oc2ccc3cc([C@@H](C)N4C5CCCC4CC(C(=O)O)C5)ccc3c2C(F)(F)F)CC1 (single isomer, unassigned) [Example 291], the IC50 was ≤ 100 nM.

For CC[C@H]1CC[C@@H](Oc2ccc3cc([C@H](C)N4C5CCCC4CC(C(=O)O)C5)ccc3c2C(F)(F)F)CC1 (single isomer, unassigned) [Example 292], the IC50 was ≤ 100 nM.

With CC[C@H](c1ccc2c(C(F)(F)F)c(O[C@H]3CC[C@@H](CC)CC3)ccc2c1)N1C2CCC1CC(C(=O)O)C2 (single isomer, unassigned) [Example 293] the IC50 was ≤ 500 nM.

For CC[C@@H](c1ccc2c(C(F)(F)F)c(O[C@H]3CC[C@@H](CC)CC3)ccc2c1)N1C2CCC1CC(C(=O)O)C2 (single isomer, unassigned) [Example 294], the IC50 was ≤ 100 nM.

For CC[C@H](c1ccc2c(C(F)(F)F)c(O[C@H]3CC[C@@H](C(F)(F)F)CC3)ccc2c1)N1C2CCCC1CC(C(=O)O)C2 (single isomer, unassigned) [Example 295], the IC50 was ≤ 250 nM.

In the case of CC[C@@H](c1ccc2c(C(F)(F)F)c(O[C@H]3CC[C@@H](C(F)(F)F)CC3)ccc2c1)N1C2CCCC1CC(C(=O)O)C2 (single isomer, unassigned) [Example 296], the IC50 is reported as ≤ 100 nM.

CC(c1ccc2c(C(F)(F)F)c(O[C@H]3CC[C@@H](C)CC3)ccc2c1)N1C2CCCC1CC(C(=O)O)C2 (single isomer, unassigned; enantiomer 1) [Example 94, 9-(1-(6-((cis-4-Methylcyclohexyl)oxy)-5-(trifluoromethyl)naphthalen-2-yl)ethyl)-9-azabicyclo[3.3.1]nonane-3-carboxylic acid, enantiomer 1] was tested, and the IC50 was ≤ 100 nM.

For CC(c1ccc2c(C(F)(F)F)c(O[C@H]3CC[C@@H](C)CC3)ccc2c1)N1C2CCC1CC(C(=O)O)C2 (single isomer, unassigned; enantiomer 1) [Example 130, 8-(1-(6-((cis-4-Methylcyclohexyl)oxy)-5-(trifluoromethyl)naphthalen-2-yl)ethyl)-8-azabicyclo[3.2.1]octane-3-carboxylic acid, enantiomer 1], the IC50 was ≤ 250 nM.

CC(c1ccc2c(C(F)F)c(O[C@H]3CC[C@@H](C)CC3)ccc2c1)N1C2CCC1CC(C(=O)O)C2 (single isomer, unassigned; enantiomer 1) [Example 136, 8-(1-(5-(difluoromethyl)-6-((cis-4-methylcyclohexyl)oxy)naphthalen-2-yl)ethyl)-8-azabicyclo[3.2.1]octane-3-carboxylic acid, enantiomer 1] was tested, and the IC50 was ≤ 100 nM.
